This note sets out measurements from patent publication US20240101570A1 (AMGEN INC., priority 2020, published 2024).

Bounds are passed on as bounds.

Test [1] deals with HCT116 MTAP null cells. The test is described as follows: HCT116 MTAP null cell proliferation / viability (CellTiter-Glo, 6 days). It is filed as cell-based. Particulars: HCT116-MTAP null, 144 h, HCT116 MTAP null cells, 6 days, CellTiter-Glo; read-out: HCT-116 MTAP null IC50. A digest of the protocol:
(§1)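 CellTiter-Glo luminescence, 6-day exposure, RPMI 1640 + 10% FBS. Dosing: 1:3 series (8-9 pts, top 1 or 10 μM) or 1:2 series (22 pts, top 10 or 50 μM), DMSO control. IC50 = 50% of control via curve fit.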
A general note: Cellular ATP, detected with luciferase, serves as a proxy for viable cell number.

The test system of test [2] is HCT116 WT cells. Description: HCT116 WT cell proliferation / viability (CellTiter-Glo, 6 days). It is filed as cell-based. Particulars: Homo sapiens, HCT-116, 144 h, HCT116 WT cells, 6 days, CellTiter-Glo; read-out: HCT-116 WT IC50. A digest of the protocol: as §1

The IC50 is the concentration at which inhibition is half-maximal. As to `CC1OCc2c1c(N)nc1ccc(C(=O)N(Cc3ccc(C(F)(F)F)cn3)CC3CCOCC3)cc21` (stereo not shown) [Example 895, 4-amino-3-methyl-N-((tetrahydro-2H-pyran-4-yl)methyl)-N-((5-(trifluoromethyl)pyridin-2-yl)methyl)-1,3-dihydrofuro[3,4-c]quinoline-8-carboxamide], the values for the half-maximal inhibitory concentration (IC50) in test [1] and in test [2] were 51 nM and 550 nM, respectively.
Turning to `N#Cc1ccc(CN(C(=O)c2ccc3nc(N)c4c(c3c2)COC4)C2CC2)nc1` [Example 454, 4-amino-N-((5-cyano-2-pyridinyl)methyl)-N-cyclopropyl-1,3-dihydrofuro[3,4-c]quinoline-8-carboxamide], the 50% inhibitory concentration (IC50) in test [1] stood at 550 nM; in test [2], 17900 nM.
Take `CN(Cc1ccc(C(F)(F)F)nn1)C(=O)c1cc2c(cc1Cl)nc(N)c1cnn(C)c12` [Example 792, 4-amino-7-chloro-N,1-dimethyl-N-((6-(trifluoromethyl)-3-pyridazinyl)methyl)-1H-pyrazolo[4,3-c]quinoline-8-carboxamide]: the results for the IC50 in test [1] and in test [2] were 30 nM and 2330 nM, respectively.
With `CC(C)N(Cc1cnc(C(F)(F)F)cn1)C(=O)c1ccc2nc(N)c3c(c2c1)CO[C@@H]3C` [Example 434, (3R)-4-amino-3-methyl-N-(2-propanyl)-N-((5-(trifluoromethyl)-2-pyrazinyl)methyl)-1,3-dihydrofuro[3,4-c]quinoline-8-carboxamide], the IC50 was found to be 584 nM in test [1] and 23900 nM in test [2].
As to `Cn1ncc2c3cc(C(=O)N(Cc4ccc(C(F)(F)F)cn4)C4CC4)c(Cl)cc3nc(N)c21` [Example 808, 4-amino-7-chloro-N-cyclopropyl-3-methyl-N-((5-(trifluoromethyl)-2-pyridinyl)methyl)-3H-pyrazolo[3,4-c]quinoline-8-carboxamide], the IC50 in test [1] was determined as 52 nM; in test [2], 3130 nM.
Turning to `CCN(C(=O)c1ccc2nc(N)c3c(c2c1)COC3)[C@H](C)c1ccc(C(F)(F)F)cc1` [Example 743, 4-amino-N-ethyl-N-((1R)-1-(4-(trifluoromethyl)phenyl)ethyl)-1,3-dihydrofuro[3,4-c]quinoline-8-carboxamide], the IC50 in test [1] was determined as 15 nM; in test [2], 1090 nM.
Regarding `COC[C@H](C1CC1)N(Cc1ccc(Br)nn1)C(=O)c1ccc2nc(N)c3sccc3c2c1` (single isomer, unassigned) [Example 650], the 50% inhibitory concentration (IC50) was 53 nM in test [1] and 811 nM in test [2].
Regarding `CCN(Cc1ccc(C(F)(F)F)cc1)C(=O)c1ccc2nc(N)c3c(c2c1)COC3` [Example 706, 4-amino-N-ethyl-N-(4-(trifluoromethyl)benzyl)-1,3-dihydrofuro[3,4-c]quinoline-8-carboxamide], the concentration for half-maximal inhibition (IC50) in test [1] is 172 nM; in test [2] it was 3450 nM.
For `Nc1nc2ccc(C(=O)N(Cc3ccc(C(F)(F)F)cn3)c3cccc(F)c3)cc2c2c1COC2` [Example 883, 4-amino-N-(3-fluorophenyl)-N-((5-(trifluoromethyl)-2-pyridinyl)methyl)-1,3-dihydrofuro[3,4-c]quinoline-8-carboxamide], the IC50 was determined as 20 nM in test [1] and 514 nM in test [2].
As to `CC(C)N(Cc1ccc(C(F)(F)F)nn1)C(=O)c1ccc2nc(N)c3c(c2c1)COC3` [Example 391, 4-amino-N-(2-propanyl)-N-((6-(trifluoromethyl)-3-pyridazinyl)methyl)-1,3-dihydrofuro[3,4-c]quinoline-8-carboxamide], the half-maximal inhibitory concentration (IC50) turned out to be 91 nM in test [1] and 4540 nM in test [2].
In the case of `Nc1nc2cc(Cl)c(C(=O)N(Cc3ccc(C(F)(F)F)nn3)CC3CC3)cc2c2c1COC2` [Example 741, 4-amino-7-chloro-N-(cyclopropylmethyl)-N-((6-(trifluoromethyl)-3-pyridazinyl)methyl)-1,3-dihydrofuro[3,4-c]quinoline-8-carboxamide], the IC50 in test [1] was determined as 42 nM; in test [2], 1020 nM.
Take `COCC(C)N(Cc1ccc(C(F)(F)F)nn1)C(=O)c1cc2c3c(c(N)nc2cc1F)COC3` (racemic) [Example 488, 4-amino-7-fluoro-N-((2R)-1-methoxy-2-propanyl)-N-((6-(trifluoromethyl)-3-pyridazinyl)methyl)-1,3-dihydrofuro[3,4-c]quinoline-8-carboxamide and 4-amino-7-fluoro-N-((2S)-1-methoxy-2-propanyl)-N-((6-(trifluoromethyl)-3-pyridazinyl)methyl)-1,3-dihydrofuro[3,4-c]quinoline-8-carboxamide]: the IC50 in test [1] was found to be 49 nM; in test [2], 696 nM.
In the case of `CC1OCc2c1c(N)nc1ccc(C(=O)N(Cc3ccc(C(F)(F)F)cn3)C3CC3C3CC3)cc21` (stereo not shown) [Example 904, N-([1,1′-bi(cyclopropan)]-2-yl)-4-amino-3-methyl-N-((5-(trifluoromethyl)pyridin-2-yl)methyl)-1,3-dihydrofuro[3,4-c]quinoline-8-carboxamide], the results for the IC50 in test [1] and in test [2] were 31 nM and 1600 nM, respectively.
As for `C[C@H](c1ccc(-c2ccc(S(F)(F)(F)(F)F)cc2)cc1)N(C)C(=O)c1ccc2nc(N)c3cnn(C)c3c2c1` [Example 533, 4-amino-N,1-dimethyl-N-((1R)-1-(4′-(pentafluoro-lambda~6~- sulfanyl)[biphenyl]-4-yl)ethyl)-1H-pyrazolo[4,3-c]quinoline-8-carboxamide], the values for the concentration for half-maximal inhibition (IC50) in test [1] and in test [2] were 459 nM and 3190 nM, respectively.
For the compound `Nc1nc2ccc(C(=O)N(Cc3ccc(C(F)F)cn3)C3CC3)cc2c2c1COC2` [Example 456, 4-amino-N-cyclopropyl-N-((5-(difluoromethyl)-2-pyridinyl)methyl)-1,3-dihydrofuro[3,4-c]quinoline-8-carboxamide], the IC50 in test [1] is 287 nM; in test [2], above 10000 nM.
As to `Nc1nc2cc(F)c(C(=O)N(Cc3ccc(C(F)(F)F)cn3)c3cnn(C(F)(F)F)c3)cc2c2c1COC2` [Example 729, 4-amino-7-fluoro-N-(1-(trifluoromethyl)-1H-pyrazol-4-yl)-N-((5-(trifluoromethyl)-2-pyridinyl)methyl)-1,3-dihydrofuro[3,4-c]quinoline-8-carboxamide], the IC50 came to 19 nM in test [1] and 534 nM in test [2].
For `CO[C@H]1CCOC[C@@H]1N(Cc1ccc(C(F)(F)F)cn1)C(=O)c1ccc2nc(N)c3c(c2c1)COC3` (single isomer, unassigned) [Example 587], the IC50 came out at 76 nM in test [1] and 1710 nM in test [2].
Taken in the same sequence, the figures for `CC(C)N(Cc1ccc(C(F)(F)F)cn1)C(=O)c1ccc2nc(N)c3c(c2c1)CO[C@@H]3C` [Example 384, (3R)-4-amino-3-methyl-N-(2-propanyl)-N-((5-(trifluoromethyl)-2-pyridinyl)methyl)-1,3-dihydrofuro[3,4-c]quinoline-8-carboxamide] were 53 nM and 1380 nM.
Taken in the same sequence, the figures for `CC(C)N(Cc1ccc(C2CC2)cn1)C(=O)c1cc2c3c(c(N)nc2cc1F)COC3` [Example 371, 4-amino-N-((5-cyclopropyl-2-pyridinyl)methyl)-7-fluoro-N-(2-propanyl)-1,3-dihydrofuro[3,4-c]quinoline-8-carboxamide] were 10 nM and 288 nM.
On the same counts, the results for `C[C@H](c1ncccn1)N(Cc1ccc(C(F)F)cn1)C(=O)c1cnc2nc(N)c3c(c2c1)CCC3` [Example 625, 6-amino-N-((5-(difluoromethyl)-2-pyridinyl)methyl)-N-((1R)-1-(2-pyrimidinyl)ethyl)-8,9-dihydro-7H-cyclopenta[c][1,8]naphthyridine-2-carboxamide] are 130 nM and 1590 nM.
As to `C[C@H]1OCc2c1c(N)nc1ccc(C(=O)N(Cc3ccc(C(F)(F)F)nn3)C3CC3)cc21` [Example 353, (3R)-4-amino-N-cyclopropyl-3-methyl-N-((6-(trifluoromethyl)-3-pyridazinyl)methyl)-1,3-dihydrofuro[3,4-c]quinoline-8-carboxamide], the IC50 in test [1] was 124 nM; in test [2], above 10000 nM.
`CN(Cc1ccc(C(F)(F)F)nc1)C(=O)c1cc2c3c(c(N)nc2cn1)COC3` [Example 693, 4-amino-N-methyl-N-((6-(trifluoromethyl)-3-pyridinyl)methyl)-1,3-dihydrofuro[3,4-c][1,7]naphthyridine-8-carboxamide]: the IC50 in test [1] is 2020 nM; in test [2] it was above 10000 nM.
With `Nc1nc2cc(F)c(C(=O)N(Cc3ccc(C(F)(F)F)cn3)C34CC(C3)C4)cc2c2c1COC2` [Example 381, 4-amino-N-(bicyclo[1.1.1]pentan-1-yl)-7-fluoro-N-((5-(trifluoromethyl)-2-pyridinyl)methyl)-1,3-dihydrofuro[3,4-c]quinoline-8-carboxamide], the half-inhibitory concentration (IC50) in test [1] was 8 nM; in test [2] it was 1560 nM.
Taken in the same sequence, the figures for `Cn1cc(N(Cc2ccc(C(F)(F)F)cn2)C(=O)c2ccc3nc(N)c4c(cnn4C)c3c2)cn1` [Example 495, 4-amino-3-methyl-N-(1-methyl-1H-pyrazol-4-yl)-N-((5-(trifluoromethyl)-2-pyridinyl)methyl)-3H-pyrazolo[3,4-c]quinoline-8-carboxamide] were 79 nM and 6360 nM.
In the case of `CN(Cc1ccc(C(F)(F)F)cc1)C(=O)c1cc2c(cn1)nc(N)c1cnn(C)c12` [Example 544, 4-amino-N,1-dimethyl-N-(4-(trifluoromethyl)benzyl)-1H-pyrazolo[4,3-c][1,7]naphthyridine-8-carboxamide], the values for the IC50 in test [1] and in test [2] were 56 nM and 2320 nM, respectively.
Consider `CC1OCc2c1c(N)nc1ccc(C(=O)N(Cc3ccc(C(F)(F)F)cn3)C3CC34CCCCC4)cc21` (stereo not shown) [Example 905, 4-amino-3-methyl-N-(spiro[2.5]octan-1-yl)-N-((5-(trifluoromethyl)pyridin-2-yl)methyl)-1,3-dihydrofuro[3,4-c]quinoline-8-carboxamide], for which the IC50 in test [1] came to 80 nM; in test [2], 4600 nM.
